{"source": "paper PMC5295395", "about": "“Inhibition of PlexA1-mediated brain tumor growth and tumor-associated angiogenesis using a transmembrane domain targeting peptide” (Oncotarget, 2016)", "key": {"NRP1-PlexA1 complex": {"system": "NRP1-PlexA1 complex", "assay": "co-immunoprecipitation of NRP1 with PlexA1 in U373MG cells", "type": "cell-based, human", "conditions": "10^−7 M peptide 1 h", "procedure": "(C) Rac-1 activation assay in resting condition and after Sema3A-induced Rac-1 activation in U373 MG cells. (D) Western blot analysis of phosphorylated Akt, total Akt and tubulin in U373MG cells treated with the vehicle (LDS 72 μM), Sema3A (100 ng/ml) or Sema3A + MTP-PlexA1 (10^−7 M). The lower panel is showing the quantification of the p-Akt/Akt ratio in the different conditions. (E) MTP-PlexA1 decreases VEGFR-2 phosphorylation induced by VEGF (100 ng/ml) in HUVEC cells. […]\nin 20 mM sodium acetate (pH 4.5) at a flow rate of 5 μl/ min 10–7 M of MTP-PlexA1 or Vehicle (LDS, 72 µM) during until desired surface densities, measured in response 1 h. Stimulation was done with 100ng/ml Semaphorin 3A units, were reached. […] First antibodies (Rabbit anti-phospho-the elution buffer containing detergent removed non- akt, Rabbit anti-akt, Cell Signaling #4060 and #9272 biotinylated peptides rendering the chip ready for analysis respectively) and mouse anti-tubulin α (Cell Signaling with monomeric biot-MTP-PlexA1. Blank surfaces were #2144) were incubated overnight at 4°C (+ anti-NRP1, used for background corrections. Injections of 30 µl anti-PlexA4 Abcam). […] Images of the immuno-blots cells per well in a 6-well plate and serum starved overnight. were acquired and analyzed thanks to the GENE GNOME Before protein extraction, the cells were treated either with apparatus (Syngene Bio Imaging, UK)."}, "Rac1": {"system": "Rac1", "assay": "ELISA-based Rac1 activation assay in U373MG cells", "type": "cell-based, human", "procedure": "(C) Rac-1 activation assay in resting condition and after Sema3A-induced Rac-1 activation in U373 MG cells. (D) Western blot analysis of phosphorylated Akt, total Akt and tubulin in U373MG cells treated with the vehicle (LDS 72 μM), Sema3A (100 ng/ml) or Sema3A + MTP-PlexA1 (10^−7 M). The lower panel is showing the quantification of the p-Akt/Akt ratio in the different conditions. (E) MTP-PlexA1 decreases VEGFR-2 phosphorylation induced by VEGF (100 ng/ml) in HUVEC cells.\nPlexA1 is a Rho-GTPase activating protein. Consistently, it has been shown that in response to Sema3A, the Rho-GTPase Rac1 is activated and sequestered at the plasma membrane. […] Moreover, it has been shown that Sema3A inhibits Akt phosphorylation through binding of Rnd1 to PlexA1. […] From these experiments we concluded that MTP-PlexA1 is able to antagonize major signaling pathways of PlexA1 receptor."}, "U118MG-Luc cells": {"system": "U118MG-Luc cells", "assay": "MTT proliferation assay, U118MG-Luc", "type": "cell-based, human", "conditions": "24 h culture"}, "PlexA1-NRP1 interactions": {"system": "PlexA1-NRP1 interactions", "assay": "proximity ligation assay on U118MG tumor sections", "type": "in vivo, human cells in mouse", "conditions": "proximity ligation assay on tumor tissue, treated mice; p = 0.0051, Mann Whitney", "procedure": "(§1) To address the biological consequences of MTP-PlexA1-mediated inhibition of PlexA1 we used the U118MG-Luc glioma cell line genetically engineered to express the luciferase reporter gene. […] Cells were then grafted subcutaneously and tumor growth was monitored every 5 days for a total period of 20 days. […] The quantitative analysis of the cumulated luminescent signal acquired all along the protocol confirmed the strong reduction of tumor development translating into a marked 75% reduction of the averaged luminescent signal at the end point (Figure 6C). […] In order to clarify the mechanism by which MTP-PlexA1 is exerting tumor growth inhibition we collected tumors and analyzed them histologically.\n(§2) (B) Representative photographs illustrating the kinetic of tumor growth over 20 days in the two experimental groups. […] (D) Waterfall plot of best response representing the percent change in tumor volume of individual treated animals (grey bars, n = 10) compared to the average tumor volume increased determined in the control group (dark bars, n = 10). […] (F) Representative microphotographs and related quantification of PH3 positive cells in tumor slices (G) Representative microphotographs and related quantification of CD31 positive regions in tumor slices (% CD31 per μm² of tumors)."}, "[1]": {"system": "PH3 positive cells in U118MG-Luc tumors", "assay": "PH3 immunostaining of U118MG-Luc xenograft tumor sections", "type": "in vivo, human cells in mouse", "conditions": "5 sections per tumor, vs control; p = 0.0022, Mann Whitney", "procedure": "as §1, §2"}}}
{"sequence": "TLPAIVGIGGGGGLLLLVIVAVLIAYKRK [MTP-PlexA1, synthetic transmembrane peptide mimicking the TMD of PlexA1]", "values": [{"measurement": "change of NRP1 co-immunoprecipitated with PlexA1, Sema3A-induced", "setting": "NRP1-PlexA1 complex; Sema3A 100 ng/ml 30 min", "value": "−24.6", "unit": "%"}, {"measurement": "reduction of NRP1 co-immunoprecipitated with PlexA1, VEGF", "setting": "NRP1-PlexA1 complex; VEGF 100 ng/ml 10 min", "value": 39.4, "unit": "%"}, {"measurement": "Rac1 activity, Sema3A-induced", "setting": "Rac1; Sema3A-induced", "value": "significantly inhibited"}, {"measurement": "Rac1 activity in the absence of ligand", "setting": "Rac1; resting condition", "value": "not affecting"}, {"measurement": "proliferation of U118MG-Luc cells", "setting": "U118MG-Luc cells", "value": "reduced proliferation in a dose dependent manner"}, {"measurement": "change of PlexA1-NRP1 interactions in tumor sections", "setting": "PlexA1-NRP1 interactions", "value": "−48.5", "unit": "%"}, {"measurement": "decrease of PH3 positive proliferative cells in tumors", "setting": "[1]", "value": 37.3, "unit": "%"}]}
